The record followed here is the Deep4Chem optical property database.

The data set is described as follows: solvent given as SMILES.
Where [1] appears, read: in c1cc(-c2cccc(-n3c4ccccc4c4ccccc43)c2)cc(-n2c3ccccc3c3ccccc32)c1.
The mark [2] stands for this setting: in O=P(c1ccccc1)(c1ccccc1)c1ccccc1Oc1ccccc1P(=O)(c1ccccc1)c1ccccc1.
Setting [3] is: in c1ccc(-n2c(-c3c(-n4c5ccccc5c5ccccc54)cccc3-n3c4ccccc4c4ccccc43)nc3ccccc32)cc1.

Structures are written as SMILES. “And” between values parts separate entries of the source, which are not always exact repeats. Equal entries are not always repeated.

`COC(=O)C(Cc1ccc2oc(-c3ccc(-n4c5ccccc5c5ccccc54)cc3)nc2c1)NC(=O)OC(C)(C)C` (configuration not stated): the fluorescence lifetime was found to be 1.37 ns (in C1CCCCC1); 3.32 ns (in C1CCOC1); 2.49 ns (in C1COCCO1); 2.78 ns (in CC1CCCO1); 5.02 ns (in CC#N); 4.03 ns (in CC(C)(C)O). Further, the fluorescence lifetime is, setting by setting: (in CC(C)=O) 4.28 ns; (in CC(C)CC(C)(C)C) 1.3 ns; (in CC(C)O) 4.49 ns; (in CC(O)CO) 5.74 ns; (in CCCCCCCO) 4 ns; (in CCCCCCO) 4.11 ns. The compound further yielded a fluorescence lifetime (in CCCCCO) of 3.36 ns; a fluorescence lifetime (in CCCCO) of 4.52 ns; a fluorescence lifetime (in CCO) of 5.3 ns; a fluorescence lifetime (in CCOC(C)=O) of 3.08 ns; a fluorescence lifetime (in CCOCC) of 2.8 ns; a fluorescence lifetime (in CN(C)C=O) of 4.97 ns. For the same compound, the fluorescence lifetime runs as follows: (in CO) 5.34 ns; (in CS(C)=O) 5.45 ns; (in Cc1ccccc1) 1.84 ns; (in OCCO) 6.17 ns.
Where the note is “in C1CCCCC1”, `C[Si](C)(C)c1ccc(C#N)c2ccccc12` had a fluorescence lifetime of 11 ns.
Turning to `CCN(CC)c1ccc(C=Cc2nc3nc4ccccc4nc3s2)cc1`, the fluorescence lifetime (in CCCCCCC(C)O) turned out to be 0.991 ns; the fluorescence lifetime (in CCOC(C)=O) came to 1.36 ns; the fluorescence lifetime (in CO) worked out at 0.05 ns; the fluorescence lifetime (in CS(C)=O) amounted to 0.42 ns; the fluorescence lifetime (in Cc1ccccc1) amounted to 0.27 ns; the fluorescence lifetime (in ClC(Cl)Cl) was determined as 1.31 ns. For the setting “in ClCCl”, the fluorescence lifetime came out at 1.62 ns.
In turn, `C1C[C@H]2CC[C@@H]1N=N2` had a fluorescence lifetime (in CC#N) of 434 ns.
Regarding `COc1ccc(C#CC2=C3CCc4ccccc4C3=[O+][B-](F)(F)O2)cc1`, where the note is “in ClCCl”, the fluorescence lifetime is 1.49 ns.
As to `C#CCNC1=C2C=CC=[N+]2[B-](F)(F)n2cccc21`, the fluorescence lifetime runs as follows: (in C1CCCCC1) 6.36 ns and 5.34 ns; (in CC(C)=O) 4.92 ns; (in CCCCO) 6.02 ns; (in CCCO) 5.16 ns; (in CCO) 4.14 ns and 3.81 ns; (in CCOC(C)=O) 5.13 ns. The fluorescence lifetime is, setting by setting: (in CN(C)C=O) 2.98 ns; (in CO) 3.22 ns; (in CS(C)=O) 1.73 ns; (in Cc1ccccc1) 6.56 ns; (in ClC(Cl)Cl) 5.29 ns; (in OCC(F)(F)F) 6.34 ns. This compound also came in with a fluorescence lifetime (in c1ccccc1) of 6.28 ns.
`N#CC(C#N)=Cc1ccc2c(c1)c1ccccc1n2-c1cc2ccccc2c2ccccc12` showed a fluorescence lifetime (in ClCCl) of 4.68 ns.
`COc1cc(OC)c2cc(-c3cccc(-c4cc5c(OC)cc(OC)cc5oc4=O)c3)c(=O)oc2c1` gave a fluorescence lifetime (in ClC(Cl)Cl) of 2.6 ns.
`CN(C)c1ccc2c(c1)C(C)(C)C(=O)C=C2` gave a fluorescence lifetime (in O) of 3.66 ns.
`CCN(CC)c1ccc2c(-c3ccc(S(=O)(=O)[O-])cc3S(=O)(=O)[O-])c3ccc(=[N+](CC)CC)cc-3oc2c1`: the fluorescence lifetime was 2.46 ns (in CC#N), 2.96 ns (in CCO), 2.84 ns (in CN(C)C=O) and 1.49 ns (in O).
On to `c1ccc2c(c1)OP1(=NP3(=NP(Oc4ccc5ccc6cccc7ccc4c5c67)(Oc4ccc5ccc6cccc7ccc4c5c67)=N1)Oc1ccccc1-c1ccccc1O3)Oc1ccccc1-2`, for which, for the setting “in ClCCl”, the fluorescence lifetime turned out to be 1.23 ns.
For the setting “in CC#N”, `Cc1cccc2nc3[nH]c(=O)[nH]c(=O)c3nc12` returned a fluorescence lifetime of 0.9 ns.
In the case of `CC1=CC(C)=[N+]2C1=Cc1c3ccccc3c(C#Cc3ccccc3)n1[B-]2(F)F`, the fluorescence lifetime came out at 5.41 ns (in CCCCCC), 5.13 ns (in CCCCCCCCO), 5.3 ns (in CCOC(C)=O) and 4.82 ns (in CN(C)C=O).
For `O=C(c1ccc(C(=O)c2ccc(N3c4ccccc4Oc4ccccc43)cc2)cc1)c1ccc(N2c3ccccc3Oc3ccccc32)cc1`, the fluorescence lifetime under setting [1] worked out at 26 ns.
For the compound `Cc1ccc2c(c1)C(=O)c1ccncc1-2`, the fluorescence lifetime by setting is: (in CC#N) 5.3 ns; (in CCOC(C)=O) 7.4 ns; (in Cc1ccccc1) 6.6 ns; (in ClCCl) 5.9 ns.
`C[Si](C)(C)c1ccc(-c2ccc(-c3ccc(-c4ccc(-c5ccc([Si](C)(C)C)cc5)cc4)c4nsnc34)cc2)cc1` registered a fluorescence lifetime (in C1CCOC1) of 5.4 ns.
The compound `c1ccc(-c2nc(-c3ccccc3)nc(-c3ccc(-n4c5ccccc5c5c6c(ccc54)-c4ccccc4C6(c4ccccc4)c4ccccc4)cc3)n2)cc1` showed a fluorescence lifetime under setting [2] of 3.3 ns.
Compound `N#Cc1nc2c3ccc(-n4c5ccccc5c5ccccc54)cc3c3cc(-n4c5ccccc5c5ccccc54)ccc3c2nc1C#N` had a fluorescence lifetime (in O=P(c1ccccc1)(c1ccccc1)c1cccc(-c2cc(-n3c4ccccc4c4ccccc43)cc(-n3c4ccccc4c4ccccc43)c2)n1) of 29.5 ns.
For the setting “in ClCCl”, `CCOC(=O)/N=c1/oc2cc(OC)ccc2cc1C#N` displayed a fluorescence lifetime of 0.8 ns.
Consider `CC(C)[Si]1(C(C)C)c2cc(N(C)C)ccc2-c2ccc(C(F)(F)F)cc21`, for which the fluorescence lifetime by setting is: (in C1CCCCC1) 3.3 ns; (in ClCCl) 2.5 ns.
On to `c1ccc(-c2cc(-c3nnc(-c4ccc(N5c6ccccc6Oc6ccccc65)cc4)o3)c(-c3ccccc3)c(-c3ccccc3)c2-c2ccccc2)cc1`, for which, under setting [3], the fluorescence lifetime was determined as 4.1 ns.
For `O=C1/C(=C2\Sc3ccccc3C2=O)Sc2ccccc21`, the fluorescence lifetime by setting is: (in C1COCCO1) 12.4 ns; (in CN(C)C=O) 6.9 ns; (in CO) 0.68 ns; (in CS(C)=O) 0.17 ns; (in c1ccccc1) 12.2 ns.
Turning to `CCOC(=O)CN1C(=O)C2=C(c3ccccc3)N(CC(=O)OCC)C(=O)C2=C1c1ccccc1`, the fluorescence lifetime reads like this: (in CC#N) 6.7 ns; (in CS(C)=O) 7.34 ns; (in Cc1ccccc1) 5.93 ns.
`CN(C)/C=N\c1ccc2c3c(cccc13)C(=O)c1ccccc1-2`: the fluorescence lifetime (in ClC(Cl)Cl) worked out at 7.96 ns.
Regarding `O=c1oc2cc(S(=O)(=O)O)c3ccccc3c2nc1-c1ccccc1`, the fluorescence lifetime (in CC#N) stood at 4.5 ns.
Turning to `COc1cc(OC)c2c(c1)C(=O)c1ccccc1-2`, the fluorescence lifetime amounted to 5.8 ns (in C1CCCCC1) and 0.9 ns (in CC#N).
Compound `Cc1ccc(C)cc1` came in with a fluorescence lifetime (in C1CCCCC1) of 47 ns.
For the compound `N#Cc1cc(-n2c3ccccc3c3cccnc32)c(-n2c3ccccc3c3cccnc32)cc1C#N`, for the setting “in c1cc(-n2c3ccccc3c3ccccc32)cc(-n2c3ccccc3c3ccccc32)c1”, the fluorescence lifetime was 86 ns.
Turning to `CN(C)c1ccc(/C=C/C=C/c2ccc(C#N)cc2)cc1`, the fluorescence lifetime was determined as 0.35 ns (in C1CCOC1); 0.56 ns (in CC#N); 0.28 ns (in CCCCCC); 0.28 ns (in CCCCOCCCC); 0.51 ns (in CCO); 0.32 ns (in CCOCC).
On to `CN(C)c1ccc(-c2cc(-c3ccc4ccccc4c3)nc(-c3ccccc3)n2)cc1`, for which the fluorescence lifetime (in C1CCCCC1) was determined as 2.9 ns, the fluorescence lifetime (in CS(C)=O) was found to be 1.6 ns and the fluorescence lifetime (in ClC(Cl)Cl) came to 2.4 ns.
As for `Cc1ccc(N(c2ccc(C)cc2)c2ccc(-c3ccc4c(c3)C(=O)c3ccccc3C4=O)cc2)cc1`, the fluorescence lifetime reads like this: (in CCCCCC) 6.89 ns; (in CCOCC) 1.27 ns; (in Cc1ccccc1) 5.75 ns; (in ClC(Cl)(Cl)Cl) 9.25 ns.
Take `Cc1ccccc1C1=C2C=c3c(oc4ccc(C(C)(C)C)cc34)=[N+]2[B-](F)(F)n2c1cc1c3cc(C(C)(C)C)ccc3oc12`: the fluorescence lifetime by setting is: (in C1CCCCC1) 4.11 ns; (in CCOC(C)=O) 4.28 ns; (in CO) 4.21 ns.
In the case of `N#Cc1cccc2[nH]ccc12`, the fluorescence lifetime is 5.3 ns (in C1CCOC1); 5.3 ns (in C1COCCO1); 5.4 ns (in CC#N); 5.7 ns (in CC(C)O); 5.7 ns (in CCO); 5.8 ns (in CO). Besides, the fluorescence lifetime is, setting by setting: (in CS(C)=O) 7.4 ns; (in NC=O) 7.8 ns; (in O) 9.1 ns; (in OCC(F)(F)F) 6.3 ns; (in [2H]O[2H]) 9.3 ns.
`CCCCCCCCN1C(=O)c2ccc3c4c(-c5ccc6c(c5)c5ccccc5n6-c5ccccc5)cc5c6c(cc(-c7ccc8c(c7)c7ccccc7n8-c7ccccc7)c(c7ccc(c2c37)C1=O)c64)C(=O)N(CCCCCCCC)C5=O` displayed a fluorescence lifetime (in ClC(Cl)Cl) of 4.1 ns.
As for `Nc1ccc2c(c1)Cc1ccccc1-2`, the fluorescence lifetime is, setting by setting: (in C1CCCCC1) 5.3 ns; (in CC#N) 3.2 ns; (in CO) 4.5 ns; (in O) 2.1 ns.
As to `CC1(C)c2ccccc2N(c2ccc(-c3nnc(-c4ccccc4)o3)cc2)c2ccccc21`, the fluorescence lifetime is, setting by setting: (in Cc1ccccc1) 7 ns; under setting [3], 7.8 ns.
In the case of `Cc1cc(-n2c3ccccc3c3ccccc32)c(-n2c3ccccc3c3ccccc32)cc1C#N`, the fluorescence lifetime by setting is: under setting [1], 14.6 ns; (in c1ccc2c(c1)c1ccccc1n2-c1ccc2sc3ccc(-n4c5ccccc5c5ccccc54)cc3c2c1) 26.4 ns; (in c1ccc2c(c1)c1ccccc1n2-c1ccc2sc3ccc(-n4c5ccccc5c5cccnc54)cc3c2c1) 15.8 ns; (in c1ccc2c(c1)c1cccnc1n2-c1ccc2sc3ccc(-n4c5ccccc5c5cccnc54)cc3c2c1) 19.5 ns.
Compound `Cc1cc(-c2ccc(-c3ccccc3)cc2)cc(C)[o+]1` yielded a fluorescence lifetime (in ClCCl) of 3.4 ns.
Regarding `CCCCCCCC[Si](C)(C)c1cccc2ccccc12`, the fluorescence lifetime (in C1CCCCC1) came to 62 ns.
For the setting “in CCCCCC”, `COc1ccc2c(c1)N(c1ccccc1-c1ccccc1)c1cc3c(cc1=N2)Oc1c(cc(C(C)(C)C)cc1C(C)(C)C)N=3` returned a fluorescence lifetime of 0.45 ns.
Where the note is “in CC#N”, `Fc1nc(F)c(F)c(/C=C2/C(c3c(F)c(F)nc(F)c3F)=Cc3ccccc32)c1F` showed a fluorescence lifetime of 0.3 ns.
On to `CC1(C)c2ccccc2-c2cc3c4ccccc4n(-c4ccc(-c5nc(-c6ccccc6)nc(-c6ccccc6)n5)cc4)c3cc21`, for which the fluorescence lifetime under setting [2] is 9.3 ns.
